Here are results for 10 compounds from patent US4863935A, “Mitomycin compounds having useful anti-tumor activity” (priority 1986, dated 1989).

Where only a bound is given, the exact number is not on record here.

Series [1] can be described thus: LD50 acute toxicity, ddy mice, single abdominal injection. The note with it: mouse, in vivo, ip, 5 ddy mice, 14 days observation, Behrens-Koerber's method. An excerpt: (§1) As used herein, the term "LD50 " denotes the acute toxicity. The term "ED50 " denotes the administered amount needed for reducing the volume of Sarcoma 180 solid tumours in animals to 50% of the corresponding tumour volume in control (untreated) animals. The term "WBC4000 " denotes the minimum dose of the drug needed to reduce the number of peripheral leucocytes to 4000/mm^3. A greater TI value results in a broader tolerance to the drug, which is advantageous for higher anti-tumour activity and decreased toxicity. The term "T" used herein denotes the average survival days of the test animals administered with the test compound. The term "C" denotes the average survival days of the control (untreated) animals. The term "OPD" denotes the dose of the drug resulting in the highest survival ratio. The term "ILS30 " denotes a 30% increase of life-span.
LD50, ED50 and WBC4000 were respectively determined as follows:
Each animal of the test group, consisting of 5 ddy mice, was administered once with a test compound by abdominal injection. […] To determine the LD50 value, Behrens-Koerber's method was applied.

Another series relates to Sarcoma 180 solid tumour. The series can be described thus: ED50 against Sarcoma 180 solid tumour implanted in mice. The class given is in vivo, male mouse (ddy strain). The note with it: for (CI)c: (CI of test compound)/(CI of mitomycin C), CI = LD50/ED50; for ED50: Mus musculus, Sarcoma-180, iv, 168 h, i.v. (tail vein) 24 h after implantation, tumour volume at 7 days, dose for T/C of 0.5.
Excerpt: With regard to the so-called chemotherapeutic index viz. the CI value against sarcoma 180 solid tumour, expressed by the formula: […]
as §1
the term (CI)c denotes (CI of the test compound)/(CI of mitomycin C), and
5×10^6 sarcoma 180 solid tumor cells were abdominally implanted into ddy mice. 7 days after this, ascites cells were sampled. The cells were washed once with a sterilized physiological saline and were used to prepare a cell suspension containing 5×10^7 cells per ml of a sterilized physiological saline. On each occasion, 0.1 ml of the cell suspension was subcutaneously implanted under the skin of the right armpit of a male mouse (ddy strain; body weight 20±2 g). The test compound which was dissolved in a physiological saline with or without addition of Tween 80 was injected into the tail vein of each animal of a group consisting of 5 mice at a dose of 0.1-0.2 ml 24 hours after the implantation of the tumor cells.
The anti-tumor activity was determined in the following manner:
7 days after the implantation, the major axis (a) and the minor axis (b) of the tumour were measured to calculate a value of (a×b^2)/2 which corresponds to the volume of the tumour. The antitumour activity was expressed by the ratio of the volume of the tumour (T) of the group of animals administered with the test compound to the corresponding volume of tumours (C) of the untreated animals.
On graph paper, T/C was plotted on the ordinate using an arithmetic scale and the administered amount of test compound was plotted on the abscissa using a logarithmic scale. The relationship between the dose and T/C was shown by a straight line determined by the method of least squares, from which ED50 viz. a dose corresponding to T/C of 0.5 was obtained.

Series [2] relates to lymphocytic Leukemia P-388. The series can be described thus: Anti-tumour activity against lymphocytic Leukemia P-388 in mice. The format is in vivo, mouse, female of CDF strain. The note with it: for (ILSmax)c: (ILSmax of test compound)/(ILSmax of mitomycin C), ILS=(T-C)/C×100; for (TI)c: (TI of test compound)/(TI of mitomycin C), TI = OPD/dose which results in ILS30; for ED (optimal dose, highest survival) / ED (30% increase of life-span): Mus musculus, P388, ip, i.p. 24 h after implantation; for ED (optimal dose, highest survival): dose resulting in the highest survival ratio, 30 days, read-out: OPD; for ED (30% increase of life-span): read-out: Dose needed to give ILS30.
Excerpt: Also, their therapeutic indexes, expressed by the formula:
TI=(OPD)/(dose which results in ILS30),
against lymphocytic Leukemia P-388 and the maximum increased life spans (ILSmax), defined by the formula: […]
as §1
The experiment was carried out in the following manner. 1×10^6 lymphocytic Leukemia P-388 tumour cells were abdominally implanted into each mouse of a group consisting of 5 mice (body weight about 22 g; female of CDF strain). 24 hours after implantation, a physiological saline solution (0.2 ml) containing the test compound with or without addition of Tween 80 was abdominally given to the test animal.
Table 7 indicates anti-tumour activities of selected Compounds (I) against lyphocytic Leukemia P-388.

The subject of another series is tumour. The note with it: background statement; cited from earlier work.
The subject of the next series is bone marrow. The note with it: background statement; cited from earlier work.

On to `CCN(CC)C(=O)SCCNC1=C(C)C(=O)C2=C(C1=O)[C@@H](COC(N)=O)[C@@]1(OC)[C@H]3N[C@H]3CN21` [Compound 4, 7-N--(2-diethylaminocarbonylthioethyl)mitomycin C], for which the LD50 at 336 h in series [1] worked out at 45 mg/kg. In addition, in the series with Sarcoma 180 solid tumour, the “(CI)c” value was 1.64 and the ED50 is 13.3 mg/kg. Moreover, in series [2], the “(ILSmax)c” value is listed as over 1.21; the “(TI)c” value was 1.18; the ED (optimal dose, highest survival) stood at 25 mg/kg; the ED (30% increase of life-span) came to 2.02 mg/kg.

In series [1], `CNC(=O)SCCNC1=C(C)C(=O)C2=C(C1=O)[C@@H](COC(N)=O)[C@@]1(OC)[C@H]3N[C@H]3CN21` [Compound 1, 7-N--(2-methylaminocarbonylthioethyl)mitomycin C] yielded an LD50 at 336 h of over 100 mg/kg. For the same compound, in the series with Sarcoma 180 solid tumour, the “(CI)c” value is over 1.39 and the 50% effect level (ED50) was put at a dose of 25.8 mg/kg. Further, in series [2], the “(ILSmax)c” value is recorded as 1.44; the “(TI)c” value is recorded as 1.33; the ED (optimal dose, highest survival) stood at 25 mg/kg; the ED (30% increase of life-span) is 0.78 mg/kg.

On to `CCNC(=S)SCCNC1=C(C)C(=O)C2=C(C1=O)[C@@H](COC(N)=O)[C@@]1(OC)[C@H]3N[C@H]3CN21` [Compound 39, 7-N--(2-ethylaminothiocarbonylthioethyl)mitomycin C], for which the LD50 at 336 h in series [1] stood at 45 mg/kg. Further, in the series on Sarcoma 180 solid tumour, the “(CI)c” value is given as 2.40 and it took a dose of 7.8 mg/kg to reach the 50% effect level (ED50). Besides, in series [2], the “(ILSmax)c” value is given as over 1.60; the “(TI)c” value turned out to be 2.74; the ED (optimal dose, highest survival) was determined as 25 mg/kg; the ED (30% increase of life-span) turned out to be 0.57 mg/kg.

`CO[C@@]12[C@H](COC(N)=O)C3=C(C(=O)C(C)=C(N)C3=O)N1C[C@@H]1N[C@@H]12` [mitomycin C]: the anti-tumour activity entry in the series with tumour is given as “strong anti-tumour activity”. For the same compound, the “toxicity to bone marrow” value with bone marrow is “strong toxicity to bone marrow”.

In series [1], `COC(=O)[C@H]1CCCN1C(=O)SCCNC1=C(C)C(=O)C2=C(C1=O)[C@@H](COC(N)=O)[C@@]1(OC)[C@H]3N[C@H]3CN21` [Compound 32, 7-N--[2-((S)--2-methoxycarbonylpyrrolidino)carbonylthioethyl]mitomycin C] returned an LD50 at 336 h of 67.5 mg/kg. For the same compound, in the series on Sarcoma 180 solid tumour, the “(CI)c” value is 1.48 and the ED50 amounted to 17.9 mg/kg. In series [2], the “(ILSmax)c” value amounted to 1.40; the “(TI)c” value was found to be 2.14; the ED (optimal dose, highest survival) was 37.5 mg/kg; the ED (30% increase of life-span) came out at 1.67 mg/kg.

Compound `COC(=O)[C@@H]1CCCN1C(=O)SCCNC1=C(C)C(=O)C2=C(C1=O)[C@@H](COC(N)=O)[C@@]1(OC)[C@H]3N[C@H]3CN21` [Compound 6, 7-N--[2-((S)--2-methoxycarbonylpyrrolidino)carbonylthioethyl]mitomycin C] yielded an LD50 at 336 h in series [1] of over 50 mg/kg. In addition, in the series with Sarcoma 180 solid tumour, the “(CI)c” value was found to be 1.77 and it took a dose of 10.1 mg/kg to reach the 50% effect level (ED50). Further, in series [2], the “(ILSmax)c” value is listed as over 1.82; the “(TI)c” value is reported as 9.09; the ED (optimal dose, highest survival) is 100 mg/kg; the ED (30% increase of life-span) stood at 1.1 mg/kg.

`CCCNC(=O)SCCNC1=C(C)C(=O)C2=C(C1=O)[C@@H](COC(N)=O)[C@@]1(OC)[C@H]3N[C@H]3CN21` [Compound 27, 7-N--(2-n-propylaminocarbonylthioethyl)mitomycin C]: the LD50 at 336 h in series [1] came out at 37.5 mg/kg. For the same compound, in the series on Sarcoma 180 solid tumour, the “(CI)c” value worked out at 1.33 and the ED50 is 11.1 mg/kg. Moreover, in series [2], the “(ILSmax)c” value is listed as 1.84; the “(TI)c” value amounted to 3.11; the ED (optimal dose, highest survival) stood at 25 mg/kg; the ED (30% increase of life-span) worked out at 0.67 mg/kg.

As for `CO[C@@]12[C@H](COC(N)=O)C3=C(C(=O)C(C)=C(NCCSC(=O)NC4CCCCC4)C3=O)N1C[C@@H]1N[C@@H]12` [Compound 29, 7-N--(2-cyclohexylaminocarbonylthioethyl)mitomycin C], the LD50 at 336 h in series [1] turned out to be 43.8 mg/kg. In addition, in the series with Sarcoma 180 solid tumour, the “(CI)c” value came out at 1.43 and the 50% effect level (ED50) was put at a dose of 12 mg/kg. In series [2], the “(ILSmax)c” value came out at 1.69; the “(TI)c” value was determined as 2.45; the ED (optimal dose, highest survival) is 25 mg/kg; the ED (30% increase of life-span) was found to be 0.85 mg/kg.

In series [1], `CCNC(=O)SCCNC1=C(C)C(=O)C2=C(C1=O)[C@@H](COC(N)=O)[C@@]1(OC)[C@H]3N[C@H]3CN21` [Compound 23, 7-N--(2-ethylaminocarbonylthioethyl)mitomycin C] gave an LD50 at 336 h of 52.5 mg/kg. Also, in the series with Sarcoma 180 solid tumour, the “(CI)c” value is reported as 2.48 and the 50% effect level (ED50) was put at a dose of 8.3 mg/kg. Also, in series [2], the “(ILSmax)c” value is reported as 1.16; the “(TI)c” value is 3.28~1.64; the ED (optimal dose, highest survival) amounted to 25 mg/kg; the ED (30% increase of life-span) amounted to 0.33 mg/kg.

With `CO[C@@]12[C@H](COC(N)=O)C3=C(C(=O)C(C)=C(NCCSC(=O)N4CCC[C@H]4C(=O)NCc4ccccc4)C3=O)N1C[C@@H]1N[C@@H]12` [Compound 14, 7-N--[2-((S)--2-benzylaminocarbonylpyrrolidino)-carbonylthioethyl]mitomycin C], the LD50 at 336 h in series [1] is 75 mg/kg. In the series on Sarcoma 180 solid tumour, the “(CI)c” value was 2.23 and it took a dose of 13.6 mg/kg to reach the 50% effect level (ED50). In series [2], the “(ILSmax)c” value is 1.44; the “(TI)c” value was found to be 0.93; the ED (optimal dose, highest survival) turned out to be 50 mg/kg; the ED (30% increase of life-span) was 3.46 mg/kg.
